Tested on: CYP3A
Conditions: 5 μM inhibitor; liver microsomes of RIF-pretreated TgCYP3A4/hPXR mice; 50 μM MDZ

`CC(=O)N1CCN(c2ccc(OCC3COC(Cn4ccnc4)(c4ccc(Cl)cc4Cl)O3)cc2)CC1` (stereo not shown) [ketoconazole] was tested, and the “Inhibition of CYP3A activity” value was “markedly inhibited”.
